Results taken from patent publication US9205073B2, “Method for treating virus infection using derivative of aniline” (CHINA MEDICAL UNIVERSITY, priority 2014, dated 2015).

Row | Compound | melting point
1 | CCOC(=O)C1=C(Nc2cc(OC)cc(OC)c2)OCC1=O | 145.6 °C
2 | CCOC(=O)C1=C(Nc2ccccc2)OCC1=O | 115 to 116 °C
3 | CCOC(=O)C1=C(Nc2cccc(Cl)c2)OCC1=O | 159.5 °C
4 | CCOC(=O)C1=C(Nc2cccc(O)c2)OCC1=O | 210 to 211 °C
